This is an account of results in publication PMC6010138, “Synthesis and carbonic anhydrase I, II, VII, and IX inhibition studies with a series of benzo[d]thiazole-5- and 6-sulfonamides” (Journal of Enzyme Inhibition and Medicinal Chemistry, 2017).

The structures appear in SMILES notation.

What all share (experiment): stopped-flow CO2 hydrase assay
What all share (type): biochemical

Experiment [1] has as its target T1, hCA VII (Homo sapiens, UniProt P43166).
T1 construct: gene CA7; recombinant, obtained in-house; cytosolic isoform
An excerpt:
stopped-flow CO2 hydrase assay on hCA VII

For experiment [2], the target named is T2, hCA IX (Homo sapiens, UniProt Q16790).
T2 construct: gene CA9; recombinant, obtained in-house; transmembrane isoform

Experiment [3] has as its target T3, hCA II (Homo sapiens, UniProt P00918).
T3 construct: gene CA2; recombinant, obtained in-house; cytosolic isoform
An excerpt: stopped-flow CO2 hydrase assay on hCA II

For experiment [4], the target named is T4, hCA I (Homo sapiens, UniProt P00915).
T4 construct: gene CA1; recombinant, obtained in-house; cytosolic isoform
T4 sequence (P00915 2-261): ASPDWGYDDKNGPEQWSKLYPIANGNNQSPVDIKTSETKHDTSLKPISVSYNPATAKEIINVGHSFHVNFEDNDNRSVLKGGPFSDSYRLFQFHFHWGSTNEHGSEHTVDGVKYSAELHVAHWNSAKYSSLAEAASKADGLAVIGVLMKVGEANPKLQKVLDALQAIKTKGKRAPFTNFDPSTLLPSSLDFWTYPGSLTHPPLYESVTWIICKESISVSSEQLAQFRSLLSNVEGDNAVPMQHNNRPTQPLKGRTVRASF

T1 sequence (P43166 whole entry, canonical isoform): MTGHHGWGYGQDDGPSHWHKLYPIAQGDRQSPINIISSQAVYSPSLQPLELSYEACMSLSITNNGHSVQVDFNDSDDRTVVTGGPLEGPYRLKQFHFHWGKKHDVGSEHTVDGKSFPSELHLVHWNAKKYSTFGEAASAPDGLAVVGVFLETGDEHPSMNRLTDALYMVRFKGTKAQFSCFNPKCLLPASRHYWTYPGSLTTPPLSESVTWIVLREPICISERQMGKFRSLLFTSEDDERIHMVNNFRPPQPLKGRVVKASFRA

As to `NC(=S)Nc1ccc(S(N)(=O)=O)cc1` [compound 1, 4-Thioureido-benzenesulfonamide], the inhibition constant Ki in experiment [1] is 75.4 nM; in experiment [2], 32.9 nM; in experiment [3], 70 nM; in experiment [4], 471 nM.
As to `Nc1nc2ccc(S(N)(=O)=O)cc2s1` [compound 2, 2-Aminobenzo[d]thiazole-6-sulfonamide], the Ki was found to be 84.2 nM in experiment [1], 3.7 nM in experiment [2], 33.6 nM in experiment [3] and 84.1 nM in experiment [4].
Consider `NC(=S)Nc1cccc(S(N)(=O)=O)c1` [compound 3, 3-Thioureidobenzenesulfonamide], for which the Ki turned out to be 75 nM in experiment [1], 296 nM in experiment [2], 149 nM in experiment [3] and 917 nM in experiment [4].
For `Nc1nc2cc(S(N)(=O)=O)ccc2s1` [compound 4, 2-Aminobenzo[d]thiazole-5-sulfonamide] the same measures were 56.5 nM, 38.2 nM, 369 nM and 795 nM.
`Nc1nc2c(Br)cc(S(N)(=O)=O)cc2s1` [compound 5, 2-Amino-4-bromobenzo[d]thiazole-6-sulfonamide]: the Ki is 31.1 nM in experiment [1], 16.2 nM in experiment [2], 8.7 nM in experiment [3] and 306 nM in experiment [4].
On to `Nc1nc2c(Br)c(S(N)(=O)=O)ccc2s1` [compound 6, 2-Amino-4-bromobenzo[d]thiazole-5-sulfonamide], for which the Ki in experiment [1] amounted to 0.8 nM; in experiment [2], 29.6 nM; in experiment [3] it was 7.8 nM; in experiment [4], 705 nM.
For `Nc1nc2c(I)cc(S(N)(=O)=O)cc2s1` [compound 7, 2-Amino-4-iodobenzo[d]thiazole-6-sulfonamide] the same measures were 92.3 nM, 212 nM, 15.1 nM and 606 nM.
In the case of `Nc1nc2c(I)c(S(N)(=O)=O)ccc2s1` [compound 8, 2-Amino-4-iodobenzo[d]thiazole-5-sulfonamide], the Ki amounted to 42.2 nM in experiment [1], 100 nM in experiment [2], 51.5 nM in experiment [3] and 482 nM in experiment [4].
Consider `CC(=O)Nc1nc2ccc(S(N)(=O)=O)cc2s1` [compound 9, N-(6-sulfamoylbenzo[d]thiazol-2-yl)acetamide], for which the Ki turned out to be 54.4 nM in experiment [1], 23.2 nM in experiment [2], 20.8 nM in experiment [3] and 361 nM in experiment [4].
Take `CC(=O)Nc1nc2c(Br)cc(S(N)(=O)=O)cc2s1` [compound 10, N-(4-bromo-6-sulfamoylbenzo[d]thiazol-2-yl)acetamide]: the Ki is 80.6 nM in experiment [1], 34.4 nM in experiment [2], 211 nM in experiment [3] and 2330 nM in experiment [4].
On to `CC(=O)Nc1nc2cc(S(N)(=O)=O)ccc2s1` [compound 11, N-(5-sulfamoylbenzo[d]thiazol-2-yl)acetamide], for which the Ki in experiment [1] stood at 81.5 nM; in experiment [2] it was 32.6 nM; in experiment [3], 42 nM; in experiment [4] it was 341 nM.
In the case of `NS(=O)(=O)c1ccc2nc(NC(=O)c3ccccc3C(=O)O)sc2c1` [compound 12, 2-((6-Sulfamoylbenzo[d]thiazol-2-yl)carbamoyl)benzoic acid], the Ki is 46.5 nM in experiment [1], 10 nM in experiment [2], 13.5 nM in experiment [3] and 97.1 nM in experiment [4].
